According to paper PMC5590646 (Biochemistry, 2015):
Where two headings read alike, the source gives them in different places. Marks after values point to notes of the source that are not given here.

What was measured:
PR20 [1] = conditions: read-out: inhibition constant Ki; cited from earlier work
[2] = target: PR (pseudo-wild-type mature HIV-1 protease); conditions: cited from earlier work
TFR-PR20 precursor = conditions: read-out: IC50 for inhibition of autoprocessing; cited from earlier work
PR = conditions: cited from earlier work
PR20 [3] = assay: DSC thermal stabilisation by inhibitor; format: binding, HIV-1; conditions: for ΔTm of PR20 smaller than that of PR20^PR-123: DSC, PR20 vs PR20^PR-123
TFR-PR precursor = conditions: cited from earlier work; for IC50: read-out: IC50 for inhibition of autoprocessing
PR20 [4] = conditions: darunavir; cited from earlier work

Compound | Ki (PR20 [1]) [nM] | Ki ([2]; read-out: inhibition constant Ki, saquinavir) [nM] | IC50 (TFR-PR20 precursor) [nM] | ΔTm (with inhibitor), DSC (PR; saquinavir) | ΔTm of PR20 smaller than that of PR20^PR-123 (PR20 [3]) | ΔTm (with inhibitor), DSC (PR20 [3]; PR20, saquinavir, 2fold molar excess of inhibitor over dimer, buffer A) [°C] | concentration that completely inhibits autoprocessing (TFR-PR precursor) [µM] | IC50 (TFR-PR precursor) [nM] | Ki ([2]; read-out: inhibition constant Ki, darunavir, ref refs and [50]) [nM] | ΔTm (with inhibitor), DSC (PR; darunavir) | ΔTm (with inhibitor), DSC (PR20 [4])
CC(C)(C)NC(=O)[C@@H]1C[C@@H]2CCCC[C@@H]2CN1C[C@@H](O)[C@H](Cc1ccccc1)NC(=O)[C@H](CC(N)=O)NC(=O)c1ccc2ccccc2n1 [saquinavir] | 930 ± 93 | 0.28 ± 0.02 | > 150000 | 19.3 ^d °C | 9–11 °C | 2.9 | 1 to 3 | 1000 to 2000 | – | – | –
CC(C)CN(C[C@@H](O)[C@H](Cc1ccccc1)NC(=O)O[C@H]1CO[C@H]2OCC[C@H]21)S(=O)(=O)c1ccc(N)cc1 [darunavir] | 41 ± 10 | – | – | – | 9–11 °C | – | 1 to 3 | 1000 to 2000 | ≤ 0.01 | 22.4 ^c °C | 5.3 ^b °C
